In PMC8286840, “Identifying SARS-CoV-2 antiviral compounds by screening for small molecule inhibitors of Nsp3 papain-like protease” (Biochemical Journal, 2021):
Where a name gives a salt, the structure may show the parent alone. Read-outs that look alike come from different tables or passages of the source.

Columns and labels:
[1] = biological target: T1, SARS-CoV-2 PLpro (nsp3 1564–1878) (Severe acute respiratory syndrome coronavirus 2, UniProt P0DTD1); experiment: biochemical; set-up: FRET-quenched peptide (Pro3) cleavage by PLpro, 10 min pre-incubation, slope over 20 min, normalised to no-compound control; details: read-out: % of control remaining
[2] = biological target: T1, SARS-CoV-2 PLpro (nsp3 1564–1878); experiment: biochemical; set-up: FRET-quenched peptide (Pro3) cleavage by PLpro, 10 min pre-incubation, slope over 20 min, normalised to no-compound control; details: read-out: % of control remaining; remark: listed apart in the source

C[C@]12CC[C@@H](O)C[C@@H]1CC[C@@H]1[C@@H]2CC[C@]2(C)C(=O)CC[C@@H]12 [Androsterone]
remaining activity at 3.75 µM ([1]; Well no.=298, high concentration screen): 99.3%
remaining activity at 3.75 µM ([1]; Well no.=6435, high concentration screen): 97.6%
remaining activity at 1.25 µM ([2]; Well no.=298, low concentration screen): 98.5%
remaining activity at 1.25 µM ([2]; Well no.=6435, low concentration screen): 99.9%

C[C@]12C[C@H](O)[C@H]3[C@@H](CCC4=CC(=O)CC[C@@]43C)[C@@H]1CC[C@@H]2C(=O)CO [Corticosterone]
remaining activity at 3.75 µM ([1]; Well no.=285, high concentration screen): 92.1%
remaining activity at 3.75 µM ([1]; Well no.=1928, high concentration screen): 96.3%
remaining activity at 3.75 µM ([1]; Well no.=7075, high concentration screen): 105%
remaining activity at 1.25 µM ([2]; Well no.=285, low concentration screen): 93.6%
remaining activity at 1.25 µM ([2]; Well no.=1928, low concentration screen): 99.3%
remaining activity at 1.25 µM ([2]; Well no.=7075, low concentration screen): 104%

O=C(CCCCCCNC(=O)c1cnc(N(c2ccccc2)c2ccccc2)nc1)NO [Rocilinostat (ACY-1215)]
remaining activity at 3.75 µM ([1]; Well no.=4786, high concentration screen): 102%
remaining activity at 1.25 µM ([2]; Well no.=4786, low concentration screen): 101%

O=c1[nH]cnc2c1ncn2[C@@H]1O[C@H](CO)[C@@H](O)[C@H]1O [Inosine]
remaining activity at 3.75 µM ([1]; Well no.=5250, high concentration screen): 92.9%
remaining activity at 3.75 µM ([1]; Well no.=6147, high concentration screen): 100%
remaining activity at 3.75 µM ([1]; Well no.=8835, high concentration screen): 89.2%
remaining activity at 1.25 µM ([2]; Well no.=5250, low concentration screen): 92.9%
remaining activity at 1.25 µM ([2]; Well no.=6147, low concentration screen): 105%
remaining activity at 1.25 µM ([2]; Well no.=8835, low concentration screen): 92.8%

C[C@@H](Oc1cc(NS(=O)(=O)N2CCC2)nc(SCc2cccc(F)c2F)n1)[C@@H](O)CO [AZD-5069]
remaining activity at 3.75 µM ([1]; Well no.=8409, high concentration screen): 101%
remaining activity at 1.25 µM ([2]; Well no.=8409, low concentration screen): 102%

O=c1cc(-c2ccc(O)cc2)oc2cc(O[C@@H]3O[C@H](CO)[C@@H](O)[C@H](O)[C@H]3O)cc(O)c12 [Apigenin-7-glucoside]
remaining activity at 3.75 µM ([1]; Well no.=3635, high concentration screen): 93.3%
remaining activity at 1.25 µM ([2]; Well no.=3635, low concentration screen): 97.8%

CCCNC(C)C(=O)Nc1c(C)csc1C(=O)OC (centres unmarked) [Articaine HCl]
remaining activity at 3.75 µM ([1]; Well no.=5367, high concentration screen): 94.3%
remaining activity at 1.25 µM ([2]; Well no.=5367, low concentration screen): 95.8%

O=C(O)[C@H]1Cc2ccccc2CN1 [(R)-1,2,3,4-Tetrahydro-3-isoquinolinecarboxylic acid]
remaining activity at 3.75 µM ([1]; Well no.=8608, high concentration screen): 101%
remaining activity at 1.25 µM ([2]; Well no.=8608, low concentration screen): 102%

NC(N)=NCCCCN=C(N)N [Arcaine sulfate]
remaining activity at 3.75 µM ([1]; Well no.=293, high concentration screen): 96.8%
remaining activity at 1.25 µM ([2]; Well no.=293, low concentration screen): 99.2%

CC(C)(C)NCC(O)c1cc(Cl)c(N)c(Cl)c1 (centres unmarked) [Clenbuterol (hydrochloride)]
remaining activity at 3.75 µM ([1]; Well no.=7371, high concentration screen): 104%
remaining activity at 1.25 µM ([2]; Well no.=7371, low concentration screen): 103%

CN1CCc2cc(O)c(O)cc2C(c2ccccc2)C1 (centres unmarked) [SKF 75670 hydrobromide]
remaining activity at 3.75 µM ([1]; Well no.=1360, high concentration screen): 105%
remaining activity at 1.25 µM ([2]; Well no.=1360, low concentration screen): 103%

C[C@@H](Nc1cc(NS(=O)(=O)N2CCC2)nc(SCc2cccc(F)c2F)n1)[C@@H](O)CO [SRT3109]
remaining activity at 3.75 µM ([1]; Well no.=8607, high concentration screen): 104%
remaining activity at 1.25 µM ([2]; Well no.=8607, low concentration screen): 108%

Nc1nc(N)nc(-c2cc(Cl)ccc2Cl)n1 [Irsogladine]
remaining activity at 3.75 µM ([1]; Well no.=2148, high concentration screen): 98.3%
remaining activity at 3.75 µM ([1]; Well no.=7629, high concentration screen): 88.4%
remaining activity at 1.25 µM ([2]; Well no.=2148, low concentration screen): 98.6%
remaining activity at 1.25 µM ([2]; Well no.=7629, low concentration screen): 94%

N=C(N)c1ccc(OCCCCCOc2ccc(C(=N)N)cc2)cc1 [Pentamidine]
remaining activity at 3.75 µM ([1]; Well no.=1766, high concentration screen): 99.6%
remaining activity at 1.25 µM ([2]; Well no.=1766, low concentration screen): 97.3%

CC(C)NCC(O)c1ccc(O)c(O)c1 (stereo not drawn) [S(+)-Isoproterenol (+)-bitartrate]
remaining activity at 3.75 µM ([1]; Well no.=823, high concentration screen): 105%
remaining activity at 1.25 µM ([2]; Well no.=823, low concentration screen): 102%

CCN1CCC[C@H]1CNC(=O)c1cc(S(N)(=O)=O)ccc1OC [Levosulpiride]
remaining activity at 3.75 µM ([1]; Well no.=6851, high concentration screen): 88.1%
remaining activity at 1.25 µM ([2]; Well no.=6851, low concentration screen): 98%

COc1cc(O)c2c(c1)oc(=O)c1c3cc(O)c(O)cc3oc21 [Wedelolactone]
remaining activity at 3.75 µM ([1]; Well no.=3230, high concentration screen): 98%
remaining activity at 1.25 µM ([2]; Well no.=3230, low concentration screen): 99.3%

CN1CCC(=C2c3ccccc3C=Cc3ccccc32)CC1 [Cyproheptadine]
remaining activity at 3.75 µM ([1]; Well no.=2300, high concentration screen): 98.2%
remaining activity at 1.25 µM ([2]; Well no.=2300, low concentration screen): 97.2%

CCCCCCCCCCCCC/C=C/[C@@H](O)[C@H](CO)NC(C)=O [C2 Ceramide]
remaining activity at 3.75 µM ([1]; Well no.=4363, high concentration screen): 104%
remaining activity at 1.25 µM ([2]; Well no.=4363, low concentration screen): 108%

O=P(O)(O)C(Cl)(Cl)P(=O)(O)O [Clodronic acid]
remaining activity at 3.75 µM ([1]; Well no.=737, high concentration screen): 96.9%
remaining activity at 3.75 µM ([1]; Well no.=1862, high concentration screen): 90.7%
remaining activity at 1.25 µM ([2]; Well no.=737, low concentration screen): 95.6%
remaining activity at 1.25 µM ([2]; Well no.=1862, low concentration screen): 92.6%

CCN(CC)CCOCCOC(=O)C1(c2ccccc2)CCCC1 [Carbetapentane citrate]
remaining activity at 3.75 µM ([1]; Well no.=368, high concentration screen): 92.5%
remaining activity at 1.25 µM ([2]; Well no.=368, low concentration screen): 90.8%

CC(C)[C@H](CO)Nc1nc(Nc2cccc(Cl)c2)c2ncn(C(C)C)c2n1 [Purvalanol A - (2R)-2-[[6-[(3-Chlorophenyl)amino]-9-(1-methylethyl)-9H-purin-2-yl]amino]-3-methyl-1-butanol]
remaining activity at 3.75 µM ([1]; Well no.=2434, high concentration screen): 105%
remaining activity at 1.25 µM ([2]; Well no.=2434, low concentration screen): 105%

CCCCCCCC/C=C\CCCCCCCC(=O)NCCO [N-Oleoylethanolamine]
remaining activity at 3.75 µM ([1]; Well no.=1086, high concentration screen): 94.6%
remaining activity at 1.25 µM ([2]; Well no.=1086, low concentration screen): 96.9%

CC(C)(Cc1ccc2ccccc2c1)NC[C@@H](O)COc1cccc(Cl)c1C#N [NPS-2143]
remaining activity at 3.75 µM ([1]; Well no.=7036, high concentration screen): 93.8%
remaining activity at 1.25 µM ([2]; Well no.=7036, low concentration screen): 96.4%

O=C1C[C@@H]2OCC=C3CN4CC[C@]56c7ccccc7N1[C@H]5[C@H]2[C@H]3C[C@H]46
remaining activity at 3.75 µM [1]: 94.7%
remaining activity at 1.25 µM [2]: 94.4%

O=C[C@H](O)[C@@H](O)[C@@H](O)[C@H](O)CO [D-Galactose]
remaining activity at 3.75 µM ([1]; Well no.=6871, high concentration screen): 96.9%
remaining activity at 1.25 µM ([2]; Well no.=6871, low concentration screen): 103%

CC[C@@]1(O)C(=O)OCc2c1cc1n(c2=O)Cc2cc3ccccc3nc2-1 [Camptothecin]
remaining activity at 3.75 µM ([1]; Well no.=1664, high concentration screen): 84.5%
remaining activity at 3.75 µM ([1]; Well no.=3127, high concentration screen): 91.9%
remaining activity at 1.25 µM ([2]; Well no.=1664, low concentration screen): 98.5%
remaining activity at 1.25 µM ([2]; Well no.=3127, low concentration screen): 96.8%

Cc1cccc(C(=O)NCN2CCN(c3ccccc3C#N)CC2)c1 [PD 168,077 maleate]
remaining activity at 3.75 µM ([1]; Well no.=1171, high concentration screen): 107%
remaining activity at 1.25 µM ([2]; Well no.=1171, low concentration screen): 106%

CSc1ccc2c(c1)N(CCC1CCCCN1C)c1ccccc1S2 (centres unmarked) [Thioridazine hydrochloride]
remaining activity at 3.75 µM ([1]; Well no.=1422, high concentration screen): 95.6%
remaining activity at 1.25 µM ([2]; Well no.=1422, low concentration screen): 96.4%

CN1CCN(c2cccc(Nc3nc4c(-c5ccc(S(C)(=O)=O)cc5)cccn4n3)c2)CC1 [CEP33779]
remaining activity at 3.75 µM ([1]; Well no.=5129, high concentration screen): 106%
remaining activity at 1.25 µM ([2]; Well no.=5129, low concentration screen): 104%

CNS(=O)(=O)CCc1ccc2[nH]cc(C3CCN(C)CC3)c2c1 [Naratriptan HCl]
remaining activity at 3.75 µM ([1]; Well no.=4909, high concentration screen): 99.8%
remaining activity at 1.25 µM ([2]; Well no.=4909, low concentration screen): 97.9%

Nc1ccn([C@H]2C[C@H](O)[C@@H](CO)O2)c(=O)n1 [2'-Deoxycytidine (hydrochloride)]
remaining activity at 3.75 µM ([1]; Well no.=7806, high concentration screen): 109%
remaining activity at 1.25 µM ([2]; Well no.=7806, low concentration screen): 105%
